Measurements as given in patent publication US20050203013A1, “Methods for inhibiting vascular permeability” (priority 2002, published 2005).

Experiments:
BCE cells = test: Junction protein staining of BCE cells treated with TNP-470; assay type: cell-based, Bovine; conditions: 3 days in culture, stimulated by VEGF or PAF
Procedure: BCE cells were grown on a coverslip glass in a 24-well plate (200,000 cells/well) in DMEM+10% BCS+3 ng/ml bFGF. Cells were treated with TNP-470 for 3 days in culture. Cells were stimulated with VEGF (5 ng/ml) or PAF (100 nM) for 20 min. Cells were stained for occludin, claudin, ZO-1, beta-catenin and VE-cadherin with fluorescent antibodies.

[1] = test system: vesiculo-vacuolar organelles and inter-endothelial junctions; test: Electron microscopy of skin venules with ferritin tracer; assay type: in vivo, SCID mice; conditions: uninjected skin or skin injected with buffer
Procedure: SCID mice were treated for three days with TNP-470 (30 mg/kg) or saline, following which anionic Ferritin tracer was injected i.v. into mice and 50 μl of human VEGF165 (1 ng/μl), or 50 μl of PBS were injected intradermally into pre-shaved flank skin. After 15 min, animals were euthanized by cervical dislocation. Skin test and control sites were excised and fixed by immersion for 4 hours in freshly prepared 2.0% paraformaldehyde-2.5% glutaraldehyde-0.025% calcium chloride in 0.1 M sodium cacodylate buffer, pH 7.4. Tissues were postfixed for 2 h in 1.5% sym-collidine-buffered osmium tetroxide, stained en bloc with uranyl acetate, dehydrated in a graded series of alcohols, and embedded in Spurr resin as previously described (Dvorak et al., 1996; Feng et al., 1996). Thin sections were then cut, collected on carbon-Formvar-coated single slot grids, and viewed in an electron microscope (CM10; Philips, Eindhoven, The Netherlands).

RhoA = RhoA activation assay; assay type: cell-based, Human; conditions: HMVEC-d
Procedure: • pGST-TRBD bacteria were grown and induced with isopropyl-thiogalactoside. The bacterial suspensions were divided into 50 ml aliquots and then harvested and frozen at −80° C. To prepare the GST-TRBD beads, each aliquot of frozen bacteria was resuspended in 2 ml of cold PBS, and then 20 μl of 1 M dithiothreitol (DTT), 20 μl of 0.2 M PMSF, and 40 μl of 50 mg/ml lysozyme were added. The sample was incubated on ice for 30 minutes. Next, 225 μL of 10% Triton X-100, 22.5 μL of IM MgCl2, 22.5 μl of 2000 KU/ml DNAse were added and the sample was incubated on ice for another 30 min. The supernatant was collected and incubated with 100 μl glutathione-coupled Sepharose 4B beads (Pharmacia Biotech) at 4° C. for 45 minutes. The beads were then washed with bead washing buffer (PBS with 10 mM DTT and 1% Triton X-100) and resuspended in the same buffer to give a 50% bead slurry.
Meanwhile, 24 hours serum-starved HMVEC-d cells were treated with 5 ng/ml TNP-470 at 37° C. for 2 hours, and then stimulated with 10 ng/ml of VEGF, PAF (10 nM), or histamine ([…]) for 5 minutes. Stimulation was stopped by adding cold PBS. Cells were lysed with lysis buffer (150 mM NaCl, 0.8 mM MgCl2, 5 mM EGTA, 1% IGEPAL, 50 mM HEPES, pH 7.5, 1 mM PMSF, 10 μg/ml leupeptin, and 10 μg/ml aprotinin). The supernatant was isolated and incubated with 50 μl of GST-TRBD beads at 4° C. for 45 minutes. Protein bound to beads was washed with AP wash buffer (50 mM Tris-HCl, pH 7.2, 1% Triton X-100, 150 mM NaCl, 10 mM MgCl2, 1 mM PMSF, 10 μg/ml leupeptin, and 10 μg/ml aprotinin) and analyzed by SDS-PAGE with an antibody against RhoA (Santa Cruz Biotechnology, CA).

[2] = test system: VEGF-induced skin permeability; test: Modified Miles assay with VEGF dose response; assay type: in vivo, C57 mice; conditions: 30 mg/kg/d s.c. for 3 days, intradermal VEGF
Source text: TNP-470, HPMA copolymer-TNP-470 and angiostatin all inhibited Evan's blue extravasation into A2058 melanoma (P<0.03 versus control), murine Lewis lung carcinoma (P<0.05), MCF-7 breast carcinoma (P<0.04), MDA-MB-231 breast carcinoma (P<0.05) and BXPC3 pancreatic adenocarcinoma (P<0.04) by 40-90% compared to control tumors treated with saline (FIG. 16B). […] In order to test the effect of VEGF secreted from the tumor and the ability of TNP-470 to inhibit the permeability induced by such amount of VEGF, a modified Miles assay using a dose response of VEGF was used. Groups of 8 week old C57 mice were treated with TNP-470 (30 mg/kg/d s.c. for 3 days) or with saline. Then we injected 100 μl 1% Evan's Blue i.v. and after 10 min injected VEGF intradermally at different concentrations. We collected skin punch biopsies and extracted dye with formamide at RT over 5 days and read the extracts at 620 nm (FIG. 16C).

ear swelling = test: Delayed-type hypersensitivity reaction elicited by oxazolone; assay type: in vivo, C57B1/6J mice
Procedure: Delayed-type hypersensitivity (DTH) reactions were induced in the skin of 8-week-old C57B1/6J male mice (n=5) as previously described (Dvorak et al., 1984). In order to induce an immune response to oxazolone, mice were first sensitized by topical application of 2% oxazolone solution in vehicle, acetone: olive oil (4:1 vol/vol), to the shaved abdomen (50 μl) and to each paw (5 μl). Mice were treated with TNP-470 (30 mg/kg s.c.) for three days prior to the second challenge with oxazolone. Five days after sensitization, the right ears were challenged by topical application of 10 μl of a 1% oxazolone solution; the left ears were treated with vehicle alone. Ear thickness was then measured daily for up to 7 days as a measure of inflammation intensity (Gad et al., 1986). Statistical analysis was performed using the unpaired Student t test. Some mice from each experimental group were euthanized 24 hours after oxazolone challenge (n=5 per group). One half of each ear was fixed in 10% formalin and was processed, embedded in paraffin and stained for H & E. The other half was embedded in OCT compound (Sakura Finetek, Torrance, Calif.) and snap-frozen in liquid nitrogen. Immunohistochemical staining was performed on 5 μm cryostat sections using a Vecstatin avidin-biotin detection system (Vector Labs, Burlingame, Calif.) with rat monoclonal antibodies against mouse CD31 (dilution 1:250, Pharmingen, San Diego, Calif.) according to the manufacturers' instructions.

chick aortic rings = test: Chick aortic ring assay; assay type: cell-based
Procedure: Aortic arches were dissected from day-14 chick embryos and cut into cross-sectional fragments, everted to expose the endothelium, and explanted in Matrigel. When cultured in serum-free MCDB-131 medium, endothelial cells outgrow and three-dimensional vascular channel formation occurred within […]. Free and conjugated TNP-470 were added to the culture.

CO[C@@H]1[C@H](OC(=O)NC(=O)CCl)CC[C@]2(CO2)[C@H]1[C@@]1(C)O[C@@H]1CC=C(C)C [TNP-470]
effect on occludin, claudin, ZO-1, beta-catenin or VE-cadherin (BCE cells): did not see any significant and reproducible effect | extravasation of circulating ferritin via VVOs [1]: reduced | PAF-induced RhoA activation (RhoA): inhibited | VPF/VEGF-induced RhoA activation (RhoA): significantly suppressed | histamine-induced RhoA activation (RhoA): inhibited | VEGF dose up to which permeability was inhibited [2]: up to 25 ng | inflammatory response (histology) (ear swelling; 24 hours after challenge): dramatically reduced | ear swelling and erythema vs control mice (ear swelling; 24 hours after oxazolone challenge, P<0.01): significantly reduced ear swelling and erythema | difference in ear swelling vs control mice (ear swelling; 48 hours, P<0.01): persisted | difference in ear swelling vs control mice (ear swelling; 4 days): differences had disappeared | concentration showing efficacy (reduced number and length of vascular sprouts) (chick aortic rings): 50 pg/mL | concentration that completely prevented outgrowth (chick aortic rings): 100 pg/mL
